Measurements published in patent publication US20210379077A1, “TOPOISOMERASE II CATALYTIC INHIBITOR COMPOUND THERAPEUTICS FOR CANCER TREATMENT, METHODS AND USES” (The University of British Columbia, priority 2018, published 2021).

Experiments:
pHOT plasmid DNA = assay: DNA intercalating assay; conditions: 0, 5, 10, 25 and 50 μM, compared with m-AMSA
Method: DNA samples were separated by electrophoresis on 0.8% agarose gels and visualized by ethium bromide staining. The positions of K-DNA and decatenated (D) DNA products are marked by arrows. Experiments were repeated five times and the densitometry of the D bands were used to establish an inhibition curve to calculate IC50. (b) Supercoiled pHOT™ plasmid was incubated with human TOP2a in the presence of 50 μM Etopside, 50 uM ICRF193 or 0-50 μM of compound #60 (Top60) compound at 37° C. for 1 hour. DNA products were separated by electrophoresis on 1% agarose gels and visualized by ethium bromide staining. The positions of supercoiled (SC), nicked (N), and relaxed (R) DNA bands are marked by arrows. Experiments were repeated five times and the densitometiy of the SC bands were used to establish an inhibition curve to calculate IC50. (c) Supercoiled pHOT™ plasmid was incubated with Topoisomerase I prior to addition of either mAMSA or compound #60 (Top60) at concentrations of 0, 5, 10, 25 and 50 μM at 37° C. for 30 minutes. […]
Top60 is a catalytic inhibitor of Topo II To verify that our lead Compound 60(Top60), the formation of ds DNA breaks was assayed both in and outside of cells. […] Furthermore, H2AXγ protein expression was assessed by Western blot to determine if the lead compound could cause DNA damage in cells, and compared to Etoposide as a control (FIG. 3b). […]

K562 cells = assay: γH2AX Western blot (DNA damage in cells); assay type: cell-based; conditions: 10-20 μM, 4 hours, listed as Top60
Method: Cytotoxicity was evaluated by measuring LDH levels from cell culture media; (b) K562 cells were treated with either vehicle or 10-20 μM of Top60, Etoposide and ICRF187 for 4 hours. Whole cell lyses were collected to measure γH2AX levels with vinculin as the loading control; (c) K562 cells were treated with 0, 1, 5, 10, 15 and 20 μM of Top60, 20 μM Etoposide or 20 uM ICRF187 for 48 hours. Cell proliferation rates were determined by MTS assays; and (d) K562 cells were treated with 20 μM of Top60, Etoposide or ICRF187 for 0, 24, 48 and 72 hours. Cell proliferation rates were measured by MTS assays. All results were collected from three independent experiments.
Top60 is a catalytic inhibitor of Topo II To verify that our lead Compound 60(Top60), the formation of ds DNA breaks was assayed both in and outside of cells. To assess whether Top60 causes double stranded DNA breaks outside cells, supercoiled plasmid was incubated with and without Top60 in the presence of Topo II (FIG. 1d). […] Furthermore, H2AXγ protein expression was assessed by Western blot to determine if the lead compound could cause DNA damage in cells, and compared to Etoposide as a control (FIG. 3b). […] To determine if Top60 was capable of intercalating DNA, it was incubated with relaxed plasmid at increasing concentrations and compared with m-AMSA, a known intercalator. […]

Hela cells [1] = assay: FACS cell cycle assay; assay type: cell-based; conditions: 20 μM, 48 hours
Method: (§1) BrdU incorporation rates were determined by Millipore™ BrdU incorporation kit (CAT #2750). (b-c) Hela cells were treated with vehicle or 20 μM of Top60 for 48 hours. Cells were then stained with APC-BrdU and 7-AAD for 4 hours, and subjected to FACS assays to determine cell populations at Sub G0/G1, G0/G1, S, and G2/M phases. Results were collected from three independent experiments, (d-e) Hela cells were treated with either vehicle or 20 μM T60 for 48 hours. Cells were fixed and co-stained with DAPI and phalloidin, and examined by confocal microscopy. Fifty cells were chosen from five high power fields to analyze nuclei sizes by the Image J software. Representative bright field microscopic images were also shown. Scale bar=50 μm.
FACS assays—Cell cycling was assessed by using BrdU incorporation into S-phase DNA through using the APC BrdU flow kit (BD Pharmingen™; Franklin Lakes, N.J., USA) according to manufacturer's protocol. Briefly, 1 mM of BrdU was added to cells and incubated for 6 hours. Cells were incubated with anti-BrdU antibody and stained with 7-AAD before processing the cells for flow cytometry.

Hela cells [2] = assay: Confocal microscopy of nuclei size; assay type: cell-based; conditions: 20 μM, 48 hours, DAPI staining
Method: as §1
Confocal microscopy—Cells were fixed with 4% paraformaldehyde, treated in 0.25% Triton X-100 for 15 mins, incubated with F-actin conjugated to Phalloidin-iFluor 488™ (Abeam™; Cambridge, UK), and mounted with DAPI staining mount (Vector Labs™; Burlingame, Calif., USA). Cells were then imaged by confocal microscopy at 63× magnification (Zeiss LSM 780™; Carl Zeiss AG™; Oberkochen, Germany).

[3] = test system: Etoposide-resistant K562 cell line; assay: MTS cell proliferation assay in Etoposide-resistant cells; assay type: cell-based; conditions: 0-20 μM, 48 hours; cells with downregulated Topo II
Method: Whole cell lyses were collected and used to measure protein levels of TOP2α, TOP2β with β-Actin as a loading control; (b) K562 cells were treated with 0, 1, and 10 μM of Top60 for 24 hours. Protein lyses were collected from soluble nuclear extract, chromatin fraction or whole cell lysate. TOP2α and TOP2β protein levels were determined by immunoblotting with Lamin A/C, Histone H3 and β-Actin as loading controls; and (c) Etoposide-resistant K562 cell line was established by treating cells with 0.5 μM of Etoposide for 6 months. TOP2α, TOP2β, and β-actin protein levels were determined by immunoblotting. Etoposide-resistant K562 cells were treated with 0, 1, 10, 15 and 20 μM of Top60, Etoposide or ICRF187 for 48 hours. Cell proliferation rates were determined by MTS assays.
In order to asses binding of the lead compound to Topo II, a thermal shift assay was performed. […] It was observed that Topo IIα was stabilized up to 43° C. in the presence of the lead compound (FIG. 4A). Furthermore, cellular fractionation was performed to assess localized changes in Topo II in response to compound treatment. As Topo IIα is important for decatenating DNA during cellular replication, it is expected to be chromatin bound. […] To further verily that Topo II is the only observable target of Top60, Etoposide resistant cell lines were bred. […]

## O=C(Nc1ccc(Nc2ccccc2)cc1)c1ccc[nH]c1=S [Compound 60]
pHOT plasmid DNA
  DNA intercalation: not an intercalator
K562 cells
  DNA damage in cells by H2AXγ protein level: do not cause DNA damage
Hela cells [1]
  cell population in G2/M: increased cell population in G2/M
  cell population in S-phase: large cell population delayed in S-phase
Hela cells [2]
  nuclei size: enlarged nuclei
[3]
  inhibitory effects on Etoposide resistant cells: dramatically reduced
